Measurements taken from US6998407B2, “Antagonists of MCP-1 function and methods of use thereof” (Telik, Inc., priority 2001, dated 2006).

Columns and labels:
ICR male mice = test: Thioglycollate-induced inflammation model; type: in vivo; conditions: peritoneal cavity, 96 h after thioglycollate; 10 mg/kg subcutaneous at 0 h, 3 h and 16 h
Description: 3% Brewer's thioglycollate broth (Difco, Detroit, Mich.) was injected into the peritoneal cavity of ICR male mice, followed by subcutaneous administration of the same dose of test compound after 0 h, 3 h and 16 hours post-thioglycollate injection, respectively. After 96 h, the number of total elicited cells and MOMA2-positive cells in the peritoneal cavity was analyzed using a flowcytometer (EPICS XL, Beckman Coulter).

male Wistar rats = test: Anti-Thy-1 antibody induced nephritis model; type: in vivo; conditions: 1 mg/kg subcutaneous, 2 h before, immediately after, 5 h after anti-Thy-1 antibody, then twice a day for 2 days
Description: The efficacy of the compounds of the present invention was also evaluated in an animal model of nephritis. This model simulates very closely the conditions found in human mesangial proliferative glomerulonephritis.
Anti-Thy-1 nephritis was induced by intravenous injection of anti-Thy-1-antibody to male Wistar rats. The test compound was subcutaneously administered 2 h before, immediately after, and 5 h after the anti-Thy-1 antibody treatment, and then twice a day for the following 2 days. Anti-MCP-1 antibody was intraperitoneally injected once a day for 3 days. Seven days after the anti-Thy-1 antibody treatment, the rats were sacrificed. The kidneys were perfused with 10% formaldehyde in PBS, surgically removed, and immersed in 10% formaldehyde. The kidneys were then embedded in paraffin for glomerular histopathology or in OCT compound Miles Inc., Elkhart, Ind.) in liquid nitrogen after immersion in 30% sucrose overnight. Immunohistochemical staining was performed with a mouse anti-rat ED-1 monoclonal antibody. Briefly, […] renal sections were prepared and endogenous peroxidase blocked with 0.3% hydrogen peroxide. The sections were then blocked with Protein Block (DAKO, Japan) and stained with anti-ED-1 antibody for 45 min. […] The amount of urinary protein was determined with the DC protein assay kit (Bio-Rad, Hercules, Calif.). […]

Row | Structure (SMILES) | MOMA2-positive Cells (ICR male mice) | Total Cells (ICR male mice) | Urinary Protein (male Wistar rats) [mg/day]
1 | O=C(NC(=O)c1ccc2c(c1)OCO2)Nc1cccc(C(F)(F)F)c1 [Compound 16, 2H-Benzo[3,4-d]1,3-dioxolen-5-yl-N-({[3-(trifluoromethyl)phenyl]amino}carbonyl)carboxamide] | 7.5 ± 1.6 × 10^6 | 8.8 ± 1.5 × 10^6 | 
2 | O=C(NC(=O)c1ccc2ncoc2c1)Nc1ccc(Cl)c(Cl)c1 [Compound 80, Benzoxazol-6-yl-N-{[(3,4-dichlorophenyl)amino]carbonyl}carboxamide] |  |  | 162.1 ± 42.6
3 | O=C(NC(=O)c1ccc2ncoc2c1)Nc1ccc(C(F)(F)F)cc1 [Compound 82, Benzoxazol-6-yl-N-({[4-(trifluoromethyl)phenyl]amino}carbonyl)carboxamide] | 3.2 ± 0.4 × 10^6 | 4.2 ± 0.4 × 10^6 | 
